Reference: patent publication US8394786B2, “Quinazoline derivatives” (Janssen Pharmaceutica N.V., priority 2003, dated 2013)

Tests used:
A431 cells = assay: Proliferation assay on the squamous carcinoma cell line A431 cells (C5); format: cell-based; conditions: Homo sapiens, A-431; 72 hours with compounds; MTT cell viability assay; read-out: A431 cell (C5): pIC50 (converted)
Protocol: The squamous carcinoma cell line (A431) was used in a cell proliferation assay, to assess the inhibitory effect of the compounds in whole cells.
In a first step the A431 cells were incubated for 24 hours in the presence of 10% FCS serum. In the second step the cells were incubated for 72 hours with the compounds to be tested at a final concentration of 100 ng/ml. The effect of the compounds on the cell proliferation was finally assessed in a standard MTT cell viability assay.

EGFR = EGFR (Homo sapiens, UniProt P00533); assay: In vitro inhibition of EGFR, Flash Plate or glass-fiber filter technology (C2); format: biochemical; set-up: 0.5 μg EGFR-kinase domain/well; conditions: EGFR-kinase domain, 5.0 μM unlabeled ATP, read-out: Kinase activity.(C2): pIC50 (converted)
Sequence of EGFR (P00533 712-979 limits assumed): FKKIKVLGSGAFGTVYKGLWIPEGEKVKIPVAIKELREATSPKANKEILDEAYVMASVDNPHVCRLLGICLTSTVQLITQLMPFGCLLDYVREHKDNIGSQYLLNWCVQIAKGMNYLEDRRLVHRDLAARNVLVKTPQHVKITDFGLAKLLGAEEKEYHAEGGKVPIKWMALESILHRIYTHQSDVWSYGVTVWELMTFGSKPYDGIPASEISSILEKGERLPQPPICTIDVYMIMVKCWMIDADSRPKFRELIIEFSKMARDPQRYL
How it was run: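 Two radiometric formats were used, each with 5.0 μM unlabeled ATP, [33P]ATP, 0.5 μg EGFR kinase domain and compounds from 1·10^−10 to 1·10^−6 M. Glass-fiber filter: 25° C for 10 min, pH 7.5, Mn2+/Mg2+, acid-stopped, phosphorimager read. Streptavidin Flash Plate: biotinylated poly(GT), pH 8.0, 30° C for 60 min.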

SKOV3 cells = assay: Serum starved proliferation assay on the ovarian carcinoma SKOV3 cells (C3); format: cell-based; conditions: EGF stimulated (100 ng/ml, 72 hours, serum free) or 72 hours with compounds, MTT cell viability assay; for IC50: Homo sapiens, SK-OV-3, 72 h, read-out: SKOV3 cell (C3): pIC50 (converted)
How it was run: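 MTT viability read-out in SKOV3 cells after a 24 h pre-incubation in 10% FCS, in one of two formats. EGF-stimulated version: serum-free compound exposure followed by 100 ng/ml EGF (final) for 72 h at 37 °C, 5% CO2. Otherwise, compound alone for 72 h.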

Row | Compound | IC50 (A431 cells) [µM] | IC50 (EGFR) [µM] | IC50 (SKOV3 cells) [µM] | melting point [°C] | SKOV3 cell (C3): pIC50 (SKOV3 cells)
1 | COc1cc2ncnc3c2cc1OCCCCCN(C(=O)OC(C)(C)C)Cc1ccc(Br)cc1N3 [Compound 19, 4,6-ethanediylidenepyrimido[4,5-b][6,1,12]benzoxadiazacyclo-pentadecine-13(8H)-carboxylic acid, 17-bromo-9,10,11,12,14,19-hexahydro-20-methoxy-, 1,1-dimethylethyl ester] | > 3.16 | 0.0631 | 5.01 |  | 
2 | COc1cc2ncnc3c2cc1OCCNC(=O)C(C(C)C)NC(=O)Cc1ccc(Cl)cc1N3 (stereo not drawn) [Compound 66, 4,6-ethanediylidene-8H-pyrimido[4,5-b][6,1,9,12]benzoxatriazacyclohexadecine-11,14-dione, 18-chloro-9,10,12,13,15,20-hexahydro-21-methoxy-12-(1-methylethyl)-] |  | 0.0794 | 0.01 | 335 | 
3 | COc1cc2ncnc3c2cc1OCCNC(=O)CNC(=O)Cc1ccc(Cl)cc1N3 [Compound 69, 4,6-ethanediylidene-8H-pyrimido[4,5-b][6,1,9,12]benzoxatriazacyclohexadecine-11,14-dione, 18-chloro-9,10,12,13,15,20-hexahydro-21-methoxy-] |  | 0.0501 | 0.0631 | 292 | 
4 | COc1cc2ncnc3c2cc1OCCCNC(=O)CCNCc1ccc(Cl)cc1N3 [Compound 70, 4,6-ethanediylidenepyrimido[4,5-b][6,1,10,14]benzoxatriazacycloheptadecin-12(13H)-one, 19-chloro-8,9,10,11,14,15,16,21-octahydro-22-methoxy-] |  | 0.01 | 3.16 | 236.4 to 237.3 | 
5 | COc1cc2ncnc3c2cc1OCCNC(=O)C1CCCN1Cc1ccc(Cl)cc1N3 (stereo not drawn) [Compound 71, 4,6-ethanediylidenepyrimido[4,5-b]pyrrolo[2,1-k][6,1,9,12]benzoxatriazacyclopentadecin-11(8H)-one, 19-chloro-9,10,11a,12,13,14,16,21-octahydro-22-methoxy-] |  | 0.0316 |  | 261.2 to 265 | 5.5
6 | COc1cc2ncnc3c2cc1OCCNC(=O)CN(C)Cc1ccc(Cl)cc1N3 [Compound 72, 4,6-ethanediylidenepyrimido[4,5-b][6,1,9,12]benzoxatriazacyclopentadecin-11(8H)-one, 17-chloro-9,10,12,13,14,19-hexahydro-20-methoxy-13-methyl-] |  | 0.158 | 10 | 288.5 to 290.5 | 
7 | COc1cc2ncnc3c2cc1OCCNC(=O)CNCc1ccc(Cl)cc1N3 [Compound 73, 4,6-ethanediylidenepyrimido[4,5-b][6,1,9,12]benzoxatriazacyclopentadecin-11(8H)-one, 17-chloro-9,10,12,13,14,19-hexahydro-20-methoxy-] |  | 0.0398 | 3.98 | 294.2 to 295.2 | 
8 | COc1cc2ncnc3c2cc1OCCCNC(=O)CN(C)Cc1ccc(Cl)cc1N3 [Compound 74, 4,6-ethanediylidene-12H-pyrimido[4,5-b][6,1,10,13]benzoxatriazacyclohexadecin-12-one, 18-chloro-8,9,10,11,13,14,15,20-octahydro-21-methoxy-14-methyl-] |  | 0.0251 | 1 | 240 to 240.3 | 
9 | COc1cc2ncnc3c2cc1OCCNC(=O)CCNCc1ccc(Cl)cc1N3 [Compound 75, 4,6-ethanediylidene-8H-pyrimido[4,5-b][6,1,9,13]benzoxatriazacyclohexadecin-11(12H)-one, 18-chloro-9,10,13,14,15,20-hexahydro-21-methoxy-] |  | 0.0631 | 6.31 | 254.4 to 256.5 | 
10 | COc1cc2ncnc3c2cc1OCCCNC(=O)C1CCC(=O)N1Cc1ccc(Cl)cc1N3 (stereo not drawn) [Compound 76, 4,6-etheno-8H-pyrimido[4,5-b]pyrrolo[2,1-l][6,1,10,13]benzoxatriazacyclohexadecine-12,15(14H)-dione, 20-chloro-9,10,11,12a,13,17,22-heptahydro-23-methoxy-] |  | 0.0251 | 0.2 | 350.5 to 352.5 | 
11 | COc1cc2ncnc3c2cc1OCCNC(=O)C1CCCN1Cc1cc(F)c(Cl)cc1N3 (stereo not drawn) [Compound 78, 4,6-ethanediylidenepyrimido[4,5-b]pyrrolo[2,1-k][6,1,9,12]benzoxatriazacyclopentadecin-11(8H)-one, 19-chloro-18-fluoro-9,10,11a,12,13,14,16,21-octahydro-22-methoxy-] |  | 0.0316 | 0.316 | 261.4 to 264 | 
12 | COc1cc2ncnc3c2cc1OCCNC(=O)CN(C)Cc1cc(F)c(Cl)cc1N3 [Compound 79, 4,6-ethanediylidenepyrimido[4,5-b][6,1,9,12]benzoxatriazacyclopentadecin-11(8H)-one, 17-chloro-16-fluoro-9,10,12,13,14,19-hexahydro-20-methoxy-13-methyl-] |  | 0.631 | 10 | 306.3 to 307.4 | 
13 | COc1cc2ncnc3c2cc1OCCCNC(=O)CN(C)Cc1cc(F)c(Cl)cc1N3 [Compound 80, 4,6-ethanediylidene-12H-pyrimido[4,5-b][6,1,10,13]benzoxatriazacyclohexadecin-12-one, 18-chloro-17-fluoro-8,9,10,11,13,14,15,20-octahydro-21-methoxy-14-methyl-] |  | 0.02 | 0.0631 | 260.4 to 261.1 | 
14 | COc1cc2ncnc3c2cc1OCCNC(=O)CNCc1cc(F)c(Cl)cc1N3 [Compound 81, 4,6-ethanediylidenepyrimido[4,5-b][6,1,9,12]benzoxatriazacyclopentadecin-11(8H)-one, 17-chloro-16-fluoro-9,10,12,13,14,19-hexahydro-20-methoxy-] |  | 0.251 | 0.251 | 304.2 to 304.4 | 
15 | COc1cc2ncnc3c2cc1OCCCNC(=O)CNCc1cc(F)c(Cl)cc1N3 [Compound 82, 4,6-ethanediylidene-12H-pyrimido[4,5-b][6,1,10,13]benzoxatriazacyclohexadecin-12-one, 18-chloro-17-fluoro-8,9,10,11,13,14,15,20-octahydro-21-methoxy-] |  | 0.02 | 0.0794 | 311 to 311.9 | 
16 | COc1cc2ncnc3c2cc1OCCNC(=O)C1CCCN1Cc1ccc(Cl)cc1N3 (stereo not drawn) [Compound 83, 4,6-ethanediylidenepyrimido[4,5-b]pyrrolo[2,1-k][6,1,9,12]benzoxatriazacyclopentadecin-11(8H)-one, 19-chloro-9,10,11a,12,13,14,16,21-octahydro-22-methoxy-] |  | 0.501 |  | 262 to 262.8 | 6.1
17 | COc1cc2ncnc3c2cc1OCCCNC(=O)CNCc1ccc(Cl)cc1N3 [Compound 99, 4,6-ethanediylidene-12H-pyrimido[4,5-b][6,1,10,13]benzoxatriazacyclohexadecin-12-one, 18-chloro-8,9,10,11,13,14,15,20-octahydro-21-methoxy-] |  | 0.0251 | 0.2 | 304.6 to 304.8 | 
18 | COc1cc2ncnc3c2cc1OCCCCNC(=O)C1CCCN1Cc1ccc(Cl)cc1N3 (stereo not drawn) [Compound 100, 4,6-ethanediylidenepyrimido[4,5-b]pyrrolo[2,1-m][6,1,11,14]benzoxatriazacycloheptadecin-13(8H)-one, 21-chloro-9,10,11,12,13a, 14,15,16,18,23-decahydro-24-methoxy-] |  | 0.00794 | 0.126 | 226.3 to 227.7 | 
19 | COc1cc2ncnc3c2cc1OCCCNCCN(C)Cc1ccc(Cl)cc1N3 [Compound 114, 4,6-ethanediylidene-8H-pyrimido[4,5-b][6,1,10,13]benzoxatriazacyclohexadecine, 18-chloro-9,10,11,12,13,14,15,20-octahydro-21-methoxy-14-methyl-] |  | 0.01 | 0.0398 | 202.8 to 203.6 | 
20 | COc1cc2ncnc3c2cc1OCCCCNCCN(C)Cc1ccc(Cl)cc1N3 [Compound 115, 4,6-ethanediylidenepyrimido[4,5-b][6,1,11,14]benzoxatriazacycloheptadecine, 19-chloro-8,9,10,11,12,13,14,15,16,21-decahydro-22-methoxy-15-methyl-] |  | 0.00631 | 0.126 | 196.9 to 197.8 | 
21 | COc1cc2ncnc3c2cc1OCCNCCN(C)Cc1ccc(Cl)cc1N3 [Compound 116, 4,6-ethanediylidenepyrimido[4,5-b][6,1,9,12]benzoxatriazacyclopentadecine, 17-chloro-8,9,10,11,12,13,14,19-octahydro-20-methoxy-13-methyl-] |  | 0.2 | 0.0631 | 195.8 to 196.6 | 
